Reference: US6465259B1, “Non radioactive receptor assay suitable for quantitative and qualitative analysis of trace amounts of receptor binding analyte” (Merska B.V., priority 1999, dated 2002)
Read-outs that look alike come from different tables or passages of the source.

Key:
benzodiazepine receptor [1] = settings: rat receptor material, cited from earlier work
benzodiazepine receptor [2] = target: T1, benzodiazepine receptor; test: Fluorescent receptor assay for benzodiazepines, calibration curves with FLB as labeled ligand; type: binding, calf; settings: 7.3 nM
T1 construct: IC50; other: FLB as labeled ligand, 7.3 nM; Bmax; other: saturation with FLB; other: [3H]flunitrazepam as labeled ligand, 2.2 nM; other: FLB assay concentration 7.3 nM; recov

benzodiazepine receptor [3] = target: T1, benzodiazepine receptor; test: Radioligand binding assay with [3H]flunitrazepam; set-up: species or system calf
Description: Calf brains, obtained from the slaughtcrhouse and stored at −80° C. after discarding the cerebellum, were homogenized in 6 volunmes (w/v) of ice-cold 0.32 M sucrose in a Potter-Elvehjem homogenizer (RW 20 DZW. Janke & Kunkel K G, Staufen i. Breisgau, Germany) fitted with a teflon pestle and centrifuged for 10 min at 1,000 ×g in a Beckman L8-55 Ulcracentrifuge (Beckman Instruments, Mijdrecht, The Netherlands). The supernatant was centrifuged for 60 min at 100,000×g. The resulting pellet (P2) was resuspended in sodium phosphate buffer (pH 7.4; 50 mM) and centrifuged for 30 min at 100,000×g. This washing step was repeated four times. All operations were performed at 4° C. […]
The filters of a MultiScreen-FB filtration plate were pre-wetted by pipetting 200 μl ice-cold Tris-HCl buffer (pH 7.4; 50 mm) into each well. […] After shaking the vials, the radioactivity was counted for 5 min in a Tri-Carb 4000 Packard scintillation counter (Canberra Packard, Groningen, The Netherlands). […]
The saturation and inhibition curves for both the radioactive labeled benzodiazepine [^3H]flunitrazepam and the fluorescent labeled benzodiazepine. […] The specific binding was calculated by subtracting the non-specific binding from the total binding. […] The Bmax value was calculated to be 3.42±0.01 nM, which corresponds to 3.84±0.09 pM/mg protein. […]

benzodiazepine receptor [4] = settings: cited from earlier work
benzodiazepine receptor [5] = tested on: T1, benzodiazepine receptor; test: Fluorescent binding assay, saturation experiments with FLB; set-up: species or system calf
Description: (§1) Calf brains, obtained from the slaughtcrhouse and stored at −80° C. after discarding the cerebellum, were homogenized in 6 volunmes (w/v) of ice-cold 0.32 M sucrose in a Potter-Elvehjem homogenizer (RW 20 DZW. Janke & Kunkel K G, Staufen i. Breisgau, Germany) fitted with a teflon pestle and centrifuged for 10 min at 1,000 ×g in a Beckman L8-55 Ulcracentrifuge (Beckman Instruments, Mijdrecht, The Netherlands). The supernatant was centrifuged for 60 min at 100,000×g. The resulting pellet (P2) was resuspended in sodium phosphate buffer (pH 7.4; 50 mM) and centrifuged for 30 min at 100,000×g. This washing step was repeated four times. All operations were performed at 4° C. The washed P2-pellet was resuspended in 5 volumes (w/v) phosphate buffer, frozen with liquid nitrogen and lyophilized (Hetosicc CD 52-1, Heto, Birkerød, Denmark) . rhe lyophilized P2-pellet was stored at −20° C. For the receptor binding assays, the lyophilized P2-pellet was resuspended in Tris-HCl buffer (pH 7.4; 50 mM) with the glass-teflon Potter homogenizer (3.5 mg/inl).
(§2) For the saturation experiments, 25 μl FLB solution (0.5-50 nM final concentration) in Tris-HCl buffer (pH 7.4; 50 mM) were pipetted in duplicate in the wells of the filtration plate after pre-wetting the filters. […] To this mixture, 200 μl of the receptor suspension (225 μg protein per assay) were added and the plate was shaken for 1 min. […] Hundred μl of the filtrates were analyzed with the above described HPLC-method.
(§3) The saturation and inhibition curves for both the radioactive labeled benzodiazepine [^3H]flunitrazepam and the fluorescent labeled benzodiazepine. […] The specific binding was calculated by subtracting the non-specific binding from the total binding. […] The Bmax value was calculated to be 3.42±0.01 nM, which corresponds to 3.84±0.09 pM/mg protein. […] After binding of BD 623 to the receptor, the fluorescence intensity is decreased and from the level of fluorescence quenching the amount of bound BD 623 can be estimated. […]

benzodiazepine receptor [6] = test: as above; set-up: species or system calf; settings: free initial concentration of 15 nM
Description: as §1, §2, §3

benzodiazepine receptor [7] = test: Affinity for the benzodiazepine receptor, method not described; type: binding; settings: FIG. 1 legend
benzodiazepine receptor [8] = settings: McCabe et al. [h]; cited from earlier work

## CCOC(=O)c1ncn2c1CN(C)C(=O)c1cc(F)ccc1-2 [[^3H]flumazenil]
Benzodiazepine receptor [1]; filtration
  Bmax: 2.3 nM

## CN1C(=O)CN=C(c2ccccc2)c2cc(Cl)ccc21 [diazepam]
Benzodiazepine receptor [2]
  IC50: 41 ± 7 nM

## O=C1Nc2ccc(Cl)cc2C(c2ccccc2Cl)=NC1O (stereo not shown) [lorazepam]
Benzodiazepine receptor [3]; [3H]flunitrazepam as labeled ligand, 2.2 nM
  IC50: 6.61 ± 0.69 nM
Benzodiazepine receptor [2]
  IC50: 7.2 ± 0.5 nM

## AMCA-didesethylflurazepam [AMCA-Ro7-1986]
Benzodiazepine receptor [4]; from reference [b]
  Ki: 8.6 nM
Benzodiazepine receptor [4]; reference [b]
  non-specific binding: 20%

## Mmc-O—CO—(CH2)3-Ro15-3890 [FLB]
Benzodiazepine receptor [3]; read-out: Ki-value, inhibition assays with [3H]flunitrazepam
  Ki: 6.5 nM
Benzodiazepine receptor [5]; FLB assay concentration 7.3 nM
  added FLB bound to the receptors (total binding): 26%
Benzodiazepine receptor [5]; saturation curve, one-binding site model, read-out: binding affinity (Kd) for the benzodiazepine receptor
  Kd: ~7.3 nM
Benzodiazepine receptor [6]
  non-specific binding, % of the total binding: 25%

## NBD-NH—(CH2)3-Ro15-3890 [BD 623]
Benzodiazepine receptor [7]
  Ki: 5.7 nM
Benzodiazepine receptor [1]; fluorescence quenching, no bound/unbound separation
  Bmax: 7.2 nM

## fluorescein-NH—(CH2)3-Ro15-3890 [BD 621]
Benzodiazepine receptor [8]
  Kd: 63 nM
